Laboratory results from patent US20140128385A1 (NOVARTIS AG, priority 2011, published 2014).
Structures can show the parent of a compound that is named as a salt.

Target: T1, BACE-2 (Homo sapiens, UniProt Q9Y5Z0)
T1 construct: Recombinant BACE-2 (extracellular domain, expressed in baculovirus and purified using standard methods); made in house
T1 sequence (Q9Y5Z0 63-473 limits assumed): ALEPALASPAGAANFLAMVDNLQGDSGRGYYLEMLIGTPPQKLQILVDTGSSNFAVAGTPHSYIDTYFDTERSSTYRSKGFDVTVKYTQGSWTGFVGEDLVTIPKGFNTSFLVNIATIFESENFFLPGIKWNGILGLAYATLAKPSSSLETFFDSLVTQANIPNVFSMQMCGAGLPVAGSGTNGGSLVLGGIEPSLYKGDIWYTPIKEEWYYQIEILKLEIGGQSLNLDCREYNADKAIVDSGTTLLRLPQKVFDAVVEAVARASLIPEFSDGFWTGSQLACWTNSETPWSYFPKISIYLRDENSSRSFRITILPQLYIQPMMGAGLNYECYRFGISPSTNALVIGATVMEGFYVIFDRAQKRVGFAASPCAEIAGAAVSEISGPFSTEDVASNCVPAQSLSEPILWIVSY
Assay: assay for inhibition of BACE-2
Type: biochemical

SMILES	IC50 [nM]
C[C@@]1(c2cc(NC(=O)c3ncc(C(F)(F)F)cc3Cl)ccc2F)CO[C@@](C)(C(F)(F)F)C(N)=N1 [Example 248, 3-Chloro-5-trifluoromethyl-pyridine-2-carboxylic acid [3-((3R,6R)-5-amino-3,6-dimethyl-6-trifluoromethyl-3,6-dihydro-2H-[1,4]oxazin-3-yl)-4-fluoro-phenyl]-amide]	22
Cc1cc(F)cnc1C(=O)Nc1ccc(F)c([C@]2(C)CO[C@@](C)(C(F)(F)F)C(N)=N2)c1 [Example 249, 5-Fluoro-3-methyl-pyridine-2-carboxylic acid [3-((3R,6R)-5-amino-3,6-dimethyl-6-trifluoro-methyl-3,6-dihydro-2H-[1,4]oxazin-3-yl)-4-fluoro-phenyl]-amide]	3
Cc1cc(OC(F)F)cnc1C(=O)Nc1ccc(F)c(C2(C)COC(CF)(CF)C(N)=N2)c1 (stereo not shown) [Example 253, 5-Difluoromethoxy-3-methyl-pyridine-2-carboxylic acid [3-(5-amino-6,6-bis-fluoromethyl-3-methyl-3,6-dihydro-2H-[1,4]oxazin-3-yl)-4-fluoro-phenyl]-amide]	426
Cc1cc(OC(F)F)cnc1C(=O)Nc1ccc(F)c([C@]2(C)COC(CF)(CF)C(N)=N2)c1 [Example 254, 5-Difluoromethoxy-3-methyl-pyridine-2-carboxylic acid [3-((R)-5-amino-6,6-bis-fluoromethyl-3-methyl-3,6-dihydro-2H-[1,4]oxazin-3-yl)-4-fluoro-phenyl]-amide]	59
Cc1cc(Cl)cnc1C(=O)Nc1ccc(F)c(C2(C)COC(CF)(CF)C(N)=N2)c1 (stereo not shown) [Example 255, 5-Chloro-3-methyl-pyridine-2-carboxylic acid [3-(5-amino-6,6-bis-fluoromethyl-3-methyl-3,6-dihydro-2H-[1,4]oxazin-3-yl)-4-fluoro-phenyl]-amide]	9
Cc1cc(C#N)cnc1C(=O)Nc1ccc(F)c([C@]2(CF)COC(CF)(CF)C(N)=N2)c1 [Example 256, 5-Cyano-3-methyl-pyridine-2-carboxylic acid [3-((R)-5-amino-3,6,6-tris-fluoromethyl-3,6-dihydro-2H-[1,4]oxazin-3-yl)-4-fluoro-phenyl]-amide]	18
C[C@@]1(c2cccc(NC(=O)c3ccc(Br)cn3)n2)COCC(N)=N1 [Example 257, 5-Bromo-pyridine-2-carboxylic acid [6-((R)-5-amino-3-methyl-3,6-dihydro-2H-[1,4]-oxazin-3-yl)-pyridin-2-yl]-amide]	256
NC1=NC(CF)(c2cccc(NC(=O)c3ccc(Cl)cn3)n2)COC1 (stereo not shown) [Example 259, 5-{6-[(5-Chloro-pyridine-2-carbonyl)-amino]-pyridin-2-yl}-5-fluoromethyl-5,6-dihydro-2H-[1,4]oxazin-3-yl-ammonium trifluoro acetate]	1390
NC1=NC(CF)(c2cccc(NC(=O)c3ccc(Br)cn3)n2)COC1 (stereo not shown) [Example 260]	1660
Cc1cc(C#N)cnc1C(=O)Nc1cccc(C2(CF)COCC(N)=N2)n1 (stereo not shown) [Example 261, 5-{6-[(5-Cyano-3-methyl-pyridine-2-carbonyl)-amino]-pyridin-2-yl}-5-fluoromethyl-5,6-dihydro-2H-[1,4]oxazin-3-yl-ammonium trifluoro acetate]	1020
[2H]c1nc(C(=O)Nc2cccc(C3(CF)COCC(N)=N3)n2)c(C([2H])([2H])[2H])c([2H])c1Cl (stereo not shown) [Example 262, 5-{6-[(4,6-Dideutero-5-chloro-3-trideuteromethyl-pyridine-2-carbonyl)-amino]-pyridin-2-yl}-5-fluoromethyl-5,6-dihydro-2H-[1,4]oxazin-3-yl-ammonium trifluoro acetate]	242
NC(=S)c1ccc(C(=O)Nc2cccc(C3(CF)COCC(N)=N3)n2)nc1 (stereo not shown) [Example 263]	8660
[2H]c1nc(C(=O)Nc2cc(C3(CF)COCC(N)=N3)ccn2)c(C([2H])([2H])[2H])c([2H])c1Cl (stereo not shown) [Example 269, 5-{2-[(5-Chloro-4,6-dideutero-3-trideuteromethyl-pyridine-2-carbonyl)-amino]-pyridin-4-yl}-5-fluoromethyl-5,6-dihydro-2H-[1,4]oxazin-3-yl-ammonium acetate]	1530
NC1=NC(CF)(c2ccnc(NC(=O)c3ccc(Cl)cn3)c2)COC1 (stereo not shown) [Example 270]	4820
Cc1cc(C(N)=S)cnc1C(=O)Nc1cc(C2(CF)COCC(N)=N2)ccn1 (stereo not shown) [Example 271, 5-Fluoromethyl-5-{2-[(3-methyl-5-thiocarbamoyl-pyridine-2-carbonyl)-amino]-pyridin-4-yl}-5,6-dihydro-2H-[1,4]oxazin-3-yl-ammonium trifluoro-acetate]	> 10000
NC1=NC(CF)(c2cc(NC(=O)c3ccc(Br)cn3)cnc2Cl)COC1 (stereo not shown) [Example 274, 5-Bromo-pyridine-2-carboxylic acid [5-(5-amino-3-fluoromethyl-3,6-dihydro-2H-[1,4]oxazin-3-yl)-6-chloro-pyridin-3-yl]-amide hydrochloride]	132
